These results are taken from patent US11358965B2, “EGFR dimer disruptors and use of the same” (THE REGENTS OF THE UNIVERSITY OF MICHIGAN, priority 2018, dated 2022).

Holding throughout (format): cell-based
The test system of one data set is cells. Description: Cell Titer Blue % cell viable (24 hrs). The note with it: for viability at 30 µM / viability at 15 µM / viability at 7.5 µM: 24 h; for viability at 15 µM: Conc 15 μM; for viability at 7.5 µM: Conc 7.5 μM. As to the method:
The viability of cells upon treatment was assessed by CellTiter-Blue® reagent following the manufacturer's protocol in RKO, UM10B, UM1, MCR5, and UMCC92 cells. Briefly, 10,000 cells were plated in 96-well plate in quadruplets. One day after seeding, cells were treated with a range of concentrations (0.1 to 30 micromolar). […] Only the viable cells convert the redox dye (reszurin) into a fluorescent product (resofurin). The emission of fluorescence (excitation 560 nm) was measured at […]. The IC50 value was calculated as the mean concentration of compounds required to inhibit cell proliferation as measured by the fluorescence at […] by 50 percent compared to the vehicle-treated controls.

Another data set deals with RKO cells. Briefly: Clonogenic IC50, RKO. The note with it: Homo sapiens.
In another data set the test system is UM1 cells. Description: Clonogenic IC50, UM1.
Another data set concerns UM10B cells. Briefly: Clonogenic IC50, UM10B.
The test system of another data set is MCR5 cells. Briefly: Clonogenic IC50, MCR5. On the procedure:
It was determined if the response to Compound 8C correlates with inhibition of EGF-induced dimerization and degradation of EGFR. For this, PC9-AZR cells were treated for 1 hour with 1 μM Compound 8C and an additional 30 minutes with EGF (30 ng/ml) and 30 minutes with disuccinimidyl suberate (DSS, 150 μM) to cross-link interacting proteins. Lysates were prepared and immunoblotted with anti-EGFR antibodies.
The viability of cells upon treatment was assessed by CellTiter-Blue® reagent following the manufacturer's protocol in RKO, UM10B, UM1, MCR5, and UMCC92 cells. Briefly, 10,000 cells were plated in 96-well plate in quadruplets. One day after seeding, cells were treated with a range of concentrations (0.1 to 30 micromolar). 3-days post-treatment, cells were incubated with the CellTiter-Blue® reagent for 4 hr. Only the viable cells convert the redox dye (reszurin) into a fluorescent product (resofurin). The emission of fluorescence (excitation 560 nm) was measured at […]. The IC50 value was calculated as the mean concentration of compounds required to inhibit cell proliferation as measured by the fluorescence at […] by 50 percent compared to the vehicle-treated controls.

The subject of another data set is UMCC92 cells. Description: Clonogenic IC50, UMCC92.

Structures can show the parent of a compound that is named as a salt.

The viability is a read-out of living cells in per cent, often relative to untreated cells. What is called IC50 is the concentration that gives 50% inhibition.

Consider `COc1ccc(C2=NC3(CCN(C(=O)OC(C)(C)C)CC3)N(CC(=O)Nc3ccc(OC)c(Cl)c3)C2=O)cc1` [Compound 3, tert-Butyl 4-(2-((3-chloro-4-methoxyphenyl)amino)-2-oxoethyl)-2-(4-methoxyphenyl)-3-oxo-1,4,8-triazaspiro[4.5]dec-1-ene-8-carboxylate], for which the viability at 30 µM in the data set on cells (Conc 30 μM) turned out to be 70%. Moreover, the IC50 with RKO cells amounted to 9.8 µM; in the data set on UM1 cells, 7.8 µM.

With `COc1ccc(C2=NC3(CCNCC3)N(CC(=O)Nc3ccc(OC)c(Cl)c3)C2=O)cc1` [Compound 4, N-(3-chloro-4-methoxyphenyl)-2-(3-(4-methoxyphenyl)-2-oxo-1,4,8-triazaspiro[4.5]dec-3-en-1-yl)acetamide hydrochloride], in the data set on cells, the viability at 15 µM was determined as 61%. In addition, the IC50 in the data set with RKO cells was determined as 7.6 µM; with UM1 cells it was 1 µM.

In the case of `COc1ccc(NC(=O)CSC2=NC3(CCN(C)CC3)N=C2c2ccc(Br)cc2)cn1` [Compound 8A, 2-((3-(4-bromophenyl)-8-methyl-1,4,8-triazaspiro[4.5]deca-1,3-dien-2-yl)thio)-N-(6-methoxypyridin-3-yl)acetamide], in the data set with cells (Conc 30 μM), the viability at 30 µM worked out at 58%. The IC50 in the data set on RKO cells is 8.8 µM; in the data set on UM1 cells, 1 µM.

For the molecule `CN1CCC2(CC1)N=C(SCC(=O)Nc1ccc(Cl)nc1)C(c1ccc(Br)cc1)=N2` [Compound 8B, 2-((3-(4-bromophenyl)-8-methyl-1,4,8-triazaspiro[4.5]deca-1,3-dien-2-yl)thio)-N-(6-chloropyridin-3-yl)acetamide], the viability at 15 µM in the data set with cells was 50%. Also, the IC50 came out at 5.3 µM with RKO cells and 0.8 µM with UM1 cells.

With `CN1CCC2(CC1)N=C(SCC(=O)Nc1ccncc1)C(c1ccc(Br)cc1)=N2` [Compound 8D, 2-((3-(4-bromophenyl)-8-methyl-1,4,8-triazaspiro[4.5]deca-1,3-dien-2-yl)thio)-N-(pyridin-4-yl)acetamide], the viability at 7.5 µM in the data set on cells was 64%. Also, the IC50 with RKO cells is 7.3 µM; with UM1 cells, 0.8 µM.

As to `CN1CCC2(CC1)N=C(SCC(=O)NC1CCCCC1)C(c1ccc(Br)cc1)=N2` [Compound 8E, 2-((3-(4-bromophenyl)-8-methyl-1,4,8-triazaspiro[4.5]deca-1,3-dien-2-yl)thio)-N-cyclohexylacetamide], the viability at 30 µM with cells (Conc 30 μM) was found to be 84%. Moreover, the IC50 amounted to 14.1 µM in the data set on RKO cells and 1.9 µM with UM1 cells.

As to `CN1CCC2(CC1)N=C(SCC(=O)NC1CCCC1)C(c1ccc(Br)cc1)=N2` [Compound 8F, 2-((3-(4-bromophenyl)-8-methyl-1,4,8-triazaspiro[4.5]deca-1,3-dien-2-yl)thio)-N-cyclopentylacetamide], the viability at 30 µM in the data set with cells (Conc 30 μM) came to 62%. Besides, the IC50 was 17.4 µM in the data set with RKO cells and 1 µM with UM1 cells.

Take `CN1CCC2(CC1)N=C(SCC(=O)NCc1ccccc1)C(c1ccc(Br)cc1)=N2` [Compound 8G, N-benzyl-2-((3-(4-bromophenyl)-8-methyl-1,4,8-triazaspiro[4.5]deca-1,3-dien-2-yl)thio)acetamide]: the viability at 30 µM in the data set with cells (Conc 30 μM) was 40%. For the same molecule, the figures for the IC50 in the data set with RKO cells and with UM1 cells were 8.5 µM and 1.6 µM, respectively.

For `COc1ccc(C2=NC3(CCN(C(=O)OC(C)(C)C)CC3)N=C2SCC(=O)Nc2ccc(OC)nc2)cc1` [Compound 10, tert-Butyl 2-(4-methoxyphenyl)-3-((2-((6-methoxypyridin-3-yl)amino)-2-oxoethyl)thio)-1,4,8-triazaspiro[4.5]deca-1,3-diene-8-carboxylate], in the data set on cells (Conc 30 μM), the viability at 30 µM stood at 81%. In addition, the IC50 with RKO cells was determined as 21.8 µM; in the data set on UM1 cells, 1.7 µM.

Consider `COc1ccc(C2=NC3(CCNCC3)N=C2SCC(=O)Nc2ccc(OC)nc2)cc1` [Compound 11, 2-((3-(4-methoxyphenyl)-1,4,8-triazaspiro[4.5]deca-1,3-dien-2-yl)thio)-N-(6-methoxypyridin-3-yl)acetamide hydrochloride], for which the viability at 30 µM in the data set with cells (Conc 30 μM) amounted to 52%. In addition, the IC50 in the data set on RKO cells was 26 µM; in the data set on UM1 cells, 1.3 µM.

On to `COc1ccc(C2=NC3(CCN(C)CC3)N=C2SCC(=O)Nc2ccc(OC)nc2)cc1` [Compound 12, 2-((3-(4-methoxyphenyl)-8-methyl-1,4,8-triazaspiro[4.5]deca-1,3-dien-2-yl)thio)-N-(6-methoxypyridin-3-yl)acetamide], for which the viability at 30 µM in the data set with cells (Conc 30 μM) was determined as 78%. In addition, the IC50 with RKO cells came out at 34 µM; with UM1 cells, 1.2 µM.

As for `CC1(C)N=C(c2ccc(F)cc2)C(=O)N1CC(=O)Nc1ccc(F)c(Cl)c1` [Compound 13], the “% Cell viable (24 hrs)” value with cells (Conc 30 μM) is 59.4%. Moreover, the IC50 was determined as 25.2 µM in the data set on RKO cells, 6.9 µM with UM10B cells and 335 µM in the data set on MCR5 cells (MCR5).

For the molecule `COc1ccc(NC(=O)CN2C(=O)C(c3ccc(C(C)(C)C)cc3)=NC2(C)C)cc1Cl` [Compound 15], the viability at 30 µM in the data set with cells (Conc 30 μM) stood at 119%. Also, the IC50 with RKO cells came out at 50.7 µM; with UM10B cells, 17.2 µM; with MCR5 cells (MCR5, MCR5), 37 µM.

With `COc1ccc(NC(=O)CN2C(=O)C(c3ccc(F)cc3)=NC2(C)C)cc1Cl` [Compound 16], the viability at 30 µM in the data set with cells (Conc 30 μM) stood at 122%. Further, the IC50 with RKO cells worked out at 43.9 µM; with UM10B cells, 38 µM; with MCR5 cells (MCR5), 1320 µM.

Regarding `CC1(C)N=C(SCC(=O)Nc2ccc(Cl)c(Cl)c2)C(c2ccc(Cl)c(Cl)c2)=N1` [Compound 18], the viability at 30 µM in the data set with cells (Conc 30 μM) was determined as 48%. Further, the IC50 in the data set with RKO cells amounted to 6.7 µM; with UM10B cells, 2.5 µM; in the data set on MCR5 cells (MCR5, MCR5), 25.9 µM.

Consider `COc1cc(NC(=O)CSC2=NC3(CCN(C)CC3)N=C2c2ccc(C)cc2)ccc1Cl` [Compound 19], for which the viability at 7.5 µM in the data set with cells was determined as 68%. In addition, the IC50 with RKO cells stood at 3.1 µM; with UM10B cells it was 2.6 µM; in the data set with MCR5 cells (MCR5, MCR5), 4.1 µM.

In the case of `COc1ccc(C2=NC3(CCN(C)CC3)N=C2SCC(=O)Nc2ccc(OC)c(Cl)c2)cc1` [Compound 20], the viability at 15 µM in the data set on cells amounted to 54%. Besides, the IC50 was determined as 1.8 µM in the data set with RKO cells; 4 µM in the data set on UM10B cells; 2.4 µM in the data set on MCR5 cells (MCR5, MCR5).

Consider `COc1ccc(NC(=O)CSC2=NC3(CCN(C)CC3)N=C2c2ccc(F)cc2)cc1Cl` [Compound 21], for which the viability at 15 µM in the data set on cells worked out at 73%. For the same molecule, the IC50 in the data set with RKO cells is 85 µM; in the data set on UM10B cells, 4.3 µM; with MCR5 cells (MCR5, MCR5), 0.3 µM.

Regarding `COc1ccc(NC(=O)CSC2=NC3(CCN(C)CC3)N=C2c2ccc(C(C)(C)C)cc2)cc1Cl` [Compound 22], the viability at 7.5 µM in the data set on cells was 55%. In addition, the IC50 was found to be 0.8 µM in the data set on RKO cells; 0.3 µM in the data set with UM10B cells; 2.3 µM with MCR5 cells (MCR5, MCR5); 0.2 µM in the data set on UMCC92 cells.

Regarding `Cc1ccc(C2=NC3(CCN(C)CC3)N=C2SCC(=O)Nc2ccc3c(c2)OCCO3)cc1` [Compound 23], in the data set with cells (Conc 30 μM), the viability at 30 µM was determined as 103%. Moreover, the IC50 in the data set on RKO cells was 2.2 µM; with UM10B cells, 5.3 µM; in the data set on MCR5 cells (MCR5, MCR5), 5.4 µM.

For `Cc1ccc(C2=NC3(CCN(C)CC3)N=C2SCC(=O)Nc2ccc3c(c2)OCO3)cc1` [Compound 24], the viability at 30 µM in the data set on cells (Conc 30 μM) came out at 72%. Besides, the IC50 in the data set on RKO cells came out at 5.4 µM; in the data set with UM10B cells it was 4.3 µM; in the data set on MCR5 cells (MCR5, MCR5) it was 7.6 µM.

Take `CN1CCC2(CC1)N=C(SCC(=O)Nc1ccc(F)c(F)c1)C(c1ccc(Cl)cc1)=N2` [Compound 26]: in the data set on cells (Conc 30 μM), the viability at 30 µM came to 88%. Besides, the IC50 amounted to 2.6 µM in the data set on RKO cells; 1.1 µM in the data set on UM10B cells; 1.3 µM in the data set on MCR5 cells (MCR5, MCR5).

On to `CN1CCC2(CC1)N=C(SCC(=O)Nc1ccc(F)c(F)c1)C(c1ccc(F)cc1)=N2` [Compound 27], for which the viability at 30 µM in the data set with cells (Conc 30 μM) came to 76%. Moreover, the IC50 with RKO cells stood at 19 µM; in the data set with UM10B cells, 8.8 µM; with MCR5 cells (MCR5, MCR5), 4.1 µM.

On to `CN1CCC2(CC1)N=C(SCC(=O)Nc1ccc(F)c(F)c1)C(c1ccc(C(C)(C)C)cc1)=N2` [Compound 28], for which the viability at 15 µM in the data set on cells came out at 15%. Also, the IC50 in the data set with RKO cells was 6.5 µM; in the data set with UM10B cells, 1 µM; in the data set on MCR5 cells (MCR5, MCR5), 1.3 µM.

Take `CN1CCC2(CC1)N=C(SCC(=O)Nc1ccc(F)c(F)c1)C(c1ccc(Br)cc1)=N2` [Compound 29]: the viability at 30 µM with cells (Conc 30 μM) stood at 89%. In addition, the IC50 in the data set with RKO cells stood at 1.4 µM; in the data set with UM10B cells, 0.7 µM; with MCR5 cells (MCR5, MCR5), 3.3 µM.

With `COc1ccc(C2=NC3(CCCCC3)N=C2SCC(=O)Nc2ccc(F)c(Cl)c2)cc1` [Compound 31], the viability at 30 µM with cells (Conc 30 μM) was determined as 99%. The IC50 in the data set on UM10B cells stood at 7.7 µM; in the data set with MCR5 cells (MCR5, MCR5), 7.8 µM.

Turning to `Cc1ccc(C2=NC3(CCCCC3)N=C2SCC(=O)Nc2ccc(F)c(Cl)c2)cc1` [Compound 32], the viability at 30 µM in the data set with cells (Conc 30 μM) was determined as 104%. For the same molecule, the IC50 was determined as 8 µM in the data set on RKO cells; 4 µM in the data set with UM10B cells; 15 µM in the data set with MCR5 cells (MCR5, MCR5).
